Measured values: publication PMC5473904, “Epigenetic and antitumor effects of platinum(IV)-octanoato conjugates” (Scientific Reports, 2017)

Tests used:
[1] = log P (octanol/water) by shake flask method; assay type: physicochemical; settings: 0.2 M aqueous NaCl
Description: To quantify the hydrophobicity of the platinum complexes, the shake-flask method was used to measure partition coefficients (log P) values for octanol/water.
To determine the partition coefficient (P) the shake flask method was used. Octanol-saturated water (OSW) and water-saturated octanol (WSO) were prepared using analytical grade octanol and 0.2 M aqueous NaCl solution (to suppress hydrolysis of the chlorido complexes). […] Mixing was done by vortexing for 30 min at room temperature to establish the partition equilibrium. To separate the phases, centrifugation was done at 3000 g for 5 min. The aqueous layer was carefully separated from the octanol layer for platinum analysis. Platinum was quantified from aliquots taken from the octanol-saturated aqueous samples before and after partition by ICP-MS.

[2] = test system: HDAC enzymes in HCT-116 cells; assay: HDAC fluorimetric cellular activity assay; assay type: cell-based, human; settings: 1 µM
Description: These epigenetic processes consist in downregulation of HDACs and yet other biochemical processes triggered by VPA released in cells by the reduction of the Pt(IV) prodrug. Moreover, it has also been shown[15] that non-branched MCFAs may act as HDAC inhibitors. […] HDAC activity was analyzed in HCT-116 cells and confirmed by an independent set of experiments on A2780 cells (data not shown) by using a commercial HDAC fluorimetric cellular activity kit as described in the section Materials and methods.
Figure 3 Activity of HDAC enzymes in HCT-116 cells treated with the compounds tested in the present work; their concentration was 1 µM except the concentration of free OA, which was 1 mM. […] The data represent a mean from three independent experiments, each performed in quadruplicate. The error bars are the SDs.
The activity of HDAC enzymes was analyzed in HCT-116 cells treated with compounds tested in the present work (1 µM). […] The activity of HDAC was analyzed using the HDAC fluorimetric cellular activity assay kit (Enzo Life Sciences; Farmingdale, NY) in the whole cells according to manufacturer’s instructions. […] The plates were scanned on a fluorescence reader Infinite 200 (TECAN) (360 nm excitation, 460 nm emission).

[3] = test system: A2780 cells; assay: Pt accumulation in A2780 cells with and without serum, BSA or lipoproteins; assay type: cell-based, human; settings: A2780, 10 μM, 4 h
Description: Interactions with serum proteins
The trends observed in the results of the in vivo antitumor activity experiments, such as the tissue biodistribution (Fig. S2A), blood levels (Fig. S2B), and cellular accumulation (Table 2) of Pt(IV) complexes could be also related to their sequestration by plasma proteins, mainly by 8 human serum albumin . Thus, the accumulation experiments in cellulo were carried out employing A2780 cells without serum (and therefore without BSA) in the culture medium. As shown in Fig. S3, when passing from the treatment in complete medium (+FBS) to the […]
Supplementary Figure S3: Pt accumulation in A2780 cells treated with Pt(IV) prodrugs […]
treatment in complete medium (+FBS) and in serum-free medium (- FBS). Data are means of at least three replicates and were tested using the two sample t-test (***p<0.001). […]
medium supplemented with 10% FBS contains 30 µM BSA, which is known to transport octanoate9,10, and 300 μg mL-1 cholesterol in the most lipophilic component, i.e. lipoproteins11, which are known to transport lipophilic drugs12,13. To verify whether the accumulation of Pt(IV)diOA could be mainly affected by BSA or lipoproteins, the experiments were repeated in serum-free medium supplemented with BSA (-FBS, + BSA) or LPC, lipoprotein-rich cholesterol (-FBS + LPC), respectively (see experimental part). As […]
(1 picture or pasted object on this page, not shown here)
(control, -FBS), in serum-free medium supplemented with 30 µM BSA (-FBS, + BSA), with lipoproteins (-FBS + LPC), and in complete medium (+FBS). Data are means of at least three replicates and were tested using the two sample t-test (***p<0.001). […]
Co.) and transferred into a microwave Teflon vessel. Subsequently, samples were submitted to the standard procedure using a speed microwave. After cooling, each mineralized sample was analyzed for platinum by ICP-MS (ThermoOptek X Series 2). Instrumental settings were optimized to achieve maximum sensitivity for platinum. For quantitative determination, the most abundant isotopes of platinum and indium (used as internal standard) were measured at m/z 195 and 115, respectively.
Accumulation of platinum in tumor cells treated with Pt(IV) complexes and cisplatin (in cellulo experiments) in the absence of serum. A2780 cells were seeded in 10 mm Petri dishes and treated with the platinum complexes (10 μM) for 4 h in complete medium, i.e. + 10 % FBS (HyClone, GE Healthcare). At time zero, 100 μL of medium was taken out from each sample to check the extracellular Pt concentration. […]
The level of Pt found in cells after drug treatment and normalized 6 upon the cell number (cellular Pt accumulation) was expressed as ng Pt per 10 cells. […]

[4] = test system: MCF-7 human breast cancer cells; set-up: method as in PMID 25888926; settings: compared with Pt(IV)diOA value of Table 1; cited from earlier work
[5] = test system: A2780 human ovarian carcinoma cells; set-up: method as in PMID 25888926; settings: compared with Pt(IV)diOA value of Table 1; cited from earlier work
[6] = test system: A2780cisR human ovarian carcinoma cells; set-up: method as in PMID 25888926; settings: compared with Pt(IV)diOA value of Table 1; cited from earlier work

SMILES	log P [1]	Efficiency to inhibit HDAC activity [2]	Change of Pt accumulation from complete medium (+FBS) to serum-free medium (-FBS) [3]	Effect of BSA addition to serum-free medium on Pt accumulation ([3]; -FBS + BSA)	Effect of LPC (lipoprotein-rich cholesterol) supplementation of serum-free medium on Pt accumulation ([3]; -FBS + LPC)	IC50 [4]	IC50 [5]	IC50 [6]
CC(=O)[O][Pt]([NH2])([NH2])([Cl])([Cl])[O]C(C)=O [Pt(IV)diAc, cis, cis, trans-[Pt(IV)(NH3)2Cl2(Ac)2]]	−1.85 ± 0.09	very small	–	–	–	–	–	–
CCCCCCCC(=O)[O][Pt]([NH2])([NH2])([Cl])([Cl])[O]C(=O)CCCCCCC [Pt(IV)diOA, cis, cis, trans-[Pt(IV)(NH3)2Cl2(OA)2]]	–	–	3 fold	negligible effect	decreased Pt accumulation	–	–	–
CCCC(CCC)C(=O)[O][Pt]([NH2])([NH2])([Cl])([Cl])[O]C(=O)C(CCC)CCC [Pt(IV)diVPA, cis, cis, trans-[Pt(IV)(NH3)2Cl2(VPA)2]]	–	–	no significant change	–	–	900 ± 300 nM	250 ± 90 nM	300 ± 100 nM
